Laboratory results taken from patent US9044463B2, “FSH receptor antagonists” (Merck Sharp & Dohme B.V., priority 2011, dated 2015).

Biological target: T1, human FSH receptor (Homo sapiens, UniProt P23945)
T1 construct: expressed in transfected cells; host or cells: CHO (Chinese Hamster Ovary) cells, stably transfected; cotransfected with a CRE-luciferase reporter
T1 sequence (P23945 18-695): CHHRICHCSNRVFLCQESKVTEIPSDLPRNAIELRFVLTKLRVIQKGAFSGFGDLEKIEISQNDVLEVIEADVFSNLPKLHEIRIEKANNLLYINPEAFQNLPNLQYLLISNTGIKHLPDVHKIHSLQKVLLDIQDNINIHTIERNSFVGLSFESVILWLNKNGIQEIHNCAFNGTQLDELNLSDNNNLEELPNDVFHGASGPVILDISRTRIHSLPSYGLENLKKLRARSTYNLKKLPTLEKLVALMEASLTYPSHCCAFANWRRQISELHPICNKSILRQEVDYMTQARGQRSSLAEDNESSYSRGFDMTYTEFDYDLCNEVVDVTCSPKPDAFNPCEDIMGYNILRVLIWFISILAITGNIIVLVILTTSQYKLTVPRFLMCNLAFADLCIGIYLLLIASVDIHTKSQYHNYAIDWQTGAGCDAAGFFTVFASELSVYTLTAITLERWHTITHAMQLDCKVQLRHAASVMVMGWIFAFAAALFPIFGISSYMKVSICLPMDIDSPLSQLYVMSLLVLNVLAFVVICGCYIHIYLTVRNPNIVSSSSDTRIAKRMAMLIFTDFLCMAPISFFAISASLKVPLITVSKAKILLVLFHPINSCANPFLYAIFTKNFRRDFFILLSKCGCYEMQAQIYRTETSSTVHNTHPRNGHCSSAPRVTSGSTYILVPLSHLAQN
Assay: Antagonistic activity at the human FSH receptor expressed in CHO cells (CRE-luciferase reporter)
Type: cell-based
Details: CHO cells stably transfected with human FSH receptor and CRE-luciferase; with 49 μM recFSH; 4 hours incubation; read-out: IC50 (inhibition of recFSH-induced luciferase stimulation)
Experimental: Antagonistic Activity of Compounds at the Human FSH Receptor Expressed in CHO Cells
Antagonistic activity of the compounds at the human FSH receptor was determined in Chinese Hamster Ovary (CHO) cells stably transfected with the human FSH receptor and cotransfected to with a cAMP responsive element (CRE)/promoter directing the expression of a firefly luciferase reporter gene. Binding of the compounds to the Gs protein-coupled FSH receptor will result in an increase of cAMP, which in turn will induce an increased transactivation of the luciferase reporter. The cells (7,500 cells/well of a 384 well plate) were incubated in Dulbecco′ minimal essential F12 modified medium (Invitrogen), supplemented with 1 μg/ml bovine insulin, 5 μg/ml human apo-transferrin, 100 U/ml penicillin G and 100 μg/ml streptomycin with the test compounds (concentration between 0.316 nM and 10.0 μM) in duplicate together with […] recFSH (which, at this concentration in the absence of test compound, induces 80% of the maximal luciferase stimulation) in a humidified atmosphere (95%) at 5-7% CO2 and 37° C. The final concentration of DMSO was 1%. After 4 hours of incubation, plates were allowed to adjust to room temperature for 1 hour. Then, SteadyLite (PerkinElmer) solution was added to the wells and cells were allowed to lyse for at least 1 hour at room temperature. Subsequently, luciferase activity was measured in a luminescence counter. The signal is expressed as counts per second (cps). The IC50 (concentration of test compound causing half-maximal (50%) inhibition of the maximally attainable inhibition of the luciferase stimulation by the compound) and efficacy of the compounds were determined using the software program MathIQ (version 2.3, ID Business Solutions Limited).

Row | Structure (SMILES) | IC50 [µM]
1 | COc1cccc(-c2cc3c(cc2C(=O)N[C@@H](CO)Cc2c[nH]c4ccccc24)-c2cc(OC)c(OC)cc2CC3)c1 [Example 25, (R)—N-(1-hydroxy-3-(1H-indol-3-v)propan-2-v)-6,7-dimethoxy-2-(3-methoxyphenyl)-9,10-dihydrophenanthrene-3-carboxamide] | < 0.1
2 | COc1cc2c(cc1OC)-c1cc(C(=O)N[C@@H](CO)Cc3c[nH]c4ccccc34)c(OC(F)F)cc1CC2 [Example 11, (R)-2-(difluoromethoxy)-N-(1-hydroxy-3-(1H-indol-3-yl)propan-2-yl)-6,7-dimethoxy-9,10-dihydrophenanthrene-3-carboxamide] | < 0.1
3 | CCCC(C)Oc1cc2c(cc1C(=O)N[C@@H](CO)Cc1c[nH]c3ccccc13)-c1cc(OC)c(OC)cc1CC2 (stereo partly drawn) [Example 10, N—((R)-1-hydroxy-3-(1H-indol-3-yl)propan-2-yl)-6,7-dimethoxy-2-(pentan-2-yloxy)-9,10-dihydrophenanthrene-3-carboxamide] | < 0.1
4 | COc1cc2c(cc1OC)-c1cc(C(=O)N[C@@H](CO)Cc3c[nH]c4ccccc34)c(CC(C)C)cc1OC2 [Example 42, (R)—N-(1-hydroxy-3-(1H-indol-3-yl)propan-2-yl)-3-isobutyl-8,9-dimethoxy-6H-benzo[c]chromene-2-carboxamide] | < 0.1
5 | O=C(N[C@@H](CO)Cc1c[nH]c2ccccc12)c1cc2c(cc1-c1ccccc1F)OCc1cc3c(cc1-2)OCO3 [Example 55, 3-(2-fluorophenyl)-N—((R)-1-hydroxy-3-(1H-indol-3-yl)propan-2-yl)-8,9-(1′,3′-dioxolo)-6H-benzo[c]chromene-2-carboxamide] | < 0.1
6 | COc1cc2c(cc1OC)-c1cc(C(=O)N[C@@H](CO)Cc3c[nH]c4ccccc34)c(-c3c(F)cc(O)cc3F)cc1CC2 [Example 19, (R)-2-(2,6-difluoro-4-hydroxyphenyl)-N-(1-hydroxy-3-(1H-indol-3-yl)propan-2-yl)-6,7-dimethoxy-9,10-dihydrophenanthrene-3-carboxamide] | < 0.1
7 | COc1cc2c(cc1OC)-c1cc(C(=O)N[C@@H](CO)Cc3c[nH]c4ccccc34)c(-c3ccccc3F)cc1OC2 [Example 36, 3-(2-fluorophenyl)-N—((R)-1-hydroxy-3-(1H-indol-3-yl)propan-2-yl)-8,9-dimethoxy-6H-benzo[c]chromene-2-carboxamide] | < 0.1
8 | COc1cc2c(cc1OC)-c1cc(C(=O)N[C@@H](CO)Cc3c[nH]c4ccccc34)c(C=C(C)C)cc1OC2 [Example 41, (R)—N-(1-hydroxy-3-(1H-indol-3-yl)propan-2-yl)-8,9-dimethoxy-3(2-methylprop-1-enyl)-6H-benzo[c]chromene-2-carboxamide] | < 0.1
9 | COc1cc2c(cc1O)-c1cc(C(=O)N[C@@H](CO)Cc3c[nH]c4ccccc34)c(-c3ccccc3F)cc1CC2 [Example 31, 2-(2-fluorophenyl)-6-hydroxy-N—((R)-1-hydroxy-3-(1H-indol-3-yl)propan-2-yl)-7-methoxy-9,10-dihydrophenanthrene-3-carboxamide] | 0.1 to 1
10 | COc1cc2c(cc1O)COc1cc(-c3ccccc3F)c(C(=O)N[C@@H](CO)Cc3c[nH]c4ccccc34)cc1-2 [Example 44, 3-(2-fluorophenyl)-8-hydroxy-N—((R)-1-hydroxy-3-(1H-indol-3-yl)propan-2-yl)-9-methoxy-6H-benzo[c]chromene-2-carboxamide] | < 0.1
11 | COc1cc2c(cc1OC)-c1cc(C(=O)N[C@@H](CO)Cc3c[nH]c4ccccc34)c(-c3ccc(N)cc3F)cc1CC2 [Example 20, 2-(4-amino-2-fluorophenyl)-N—((R)-1-hydroxy-3-(1H-indol-3-yl)propan-2-yl)-6,7-dimethoxy-9,10-dihydrophenanthrene-3-carboxamide] | < 0.1
12 | COc1cc2c(cc1OC)-c1cc(C(=O)N[C@@H](CO)Cc3c[nH]c4ccccc34)c(OCC3CC3)cc1CC2 [Example 8, (R)-2-(cyclopropylmethoxy)-N-(1-hydroxy-3-(1H-indol-3-yl)propan-2-yl)-6,7-dimethoxy-9,10-dihydrophenanthrene-3-carboxamide] | < 0.1
13 | COc1cc2c(cc1C#N)-c1cc(C(=O)N[C@@H](CO)Cc3c[nH]c4ccccc34)c(OC(C)C)cc1CC2 [Example 33, (R)-6-cyano-N-(1-hydroxy-3-(1H-indol-3-yl)propan-2-yl)-2-isopropoxy-7-methoxy-9,10-dihydrophenanthrene-3-carboxamide] | 0.1 to 1
14 | COc1cc2c(c(OC)c1OC)CCc1cc(-c3cccc(F)c3F)c(C(=O)N[C@@H](CO)Cc3c[nH]c4ccccc34)cc1-2 [Example 3, 2-(2,3-difluorophenyl)-N—((R)-1-hydroxy-3-(1H-indol-3-yl)propan-2-yl)-6,7,8-trimethoxy-9,10-dihydrophenanthrene-3-carboxamide] | < 0.1
15 | COCCOc1cc2c(cc1C(=O)N[C@@H](CO)Cc1c[nH]c3ccccc13)-c1cc(OC)c(OC)cc1CC2 [Example 15, (R)—N-(1-hydroxy-3-(1H-indol-3-yl)propan-2-yl)-6,7-dimethoxy-2-(2-methoxyethoxy)-9,10-dihydrophenanthrene-3-carboxamide] | 0.1 to 1
16 | COc1cc2c(c(OC)c1OC)CCc1cc(-c3ccccc3)c(C(=O)N[C@@H](CO)Cc3c[nH]c4ccccc34)cc1-2 [Example 1, (R)—N-(1-hydroxy-3-(1H-indol-3-yl)propan-2-yl)-6,7,8-trimethoxy-2-phenyl-9,10-dihydrophenanthrene-3-carboxamide] | < 0.1
17 | COc1cc2c(cc1OC)-c1cc(C(=O)N[C@@H](CO)Cc3c[nH]c4ccccc34)c(-c3ccncc3F)cc1CC2 [Example 21, 2-(3-fluoropyridin-4-yl)-N—((R)-1-hydroxy-3-(1H-indol-3-yl)propan-2-yl)-6,7-dimethoxy-9,10-dihydrophenanthrene-3-carboxamide] | < 0.1
18 | C=CCOc1cc2c(cc1OC)CCc1cc(-c3ccccc3F)c(C(=O)N[C@@H](CO)Cc3c[nH]c4ccccc34)cc1-2 [Example 29, 6-(allyloxy)-2-(2-fluorophenyl)-N—((R)-1-hydroxy-3-(1H-indol-3-yl)propan-2-yl)-7-methoxy-9,10-dihydrophenanthrene-3-carboxamide] | < 0.1
19 | COc1cc2c(c(OC)c1OC)CCc1cc(-c3cccnc3OC)c(C(=O)N[C@@H](CO)Cc3c[nH]c4ccccc34)cc1-2 [Example 6, N—((R)-1-hydroxy-3-(1H-indol-3-yl)propan-2-yl)-6,7,8-trimethoxy-2-(2-methoxypyrdin-3-v)-9,10-dihydrophenanthrene-3-carboxamide] | < 0.1
20 | COc1cc2c(cc1-c1ccncc1)COc1cc(-c3ccccc3F)c(C(=O)N[C@@H](CO)Cc3c[nH]c4ccccc34)cc1-2 [Example 52, 3-(2-fluorophenyl)-N—((R)-1-hydroxy-3-(1H-indol-3-yl)propan-2-yl)-9-methoxy-8-(pyridin-4)-6H-benzo[c]chromene-2-carboxamide] | < 0.1
21 | COc1cc2c(cc1OC)-c1cc(C(=O)N[C@@H](CO)Cc3c[nH]c4ccccc34)c(-c3c(C)n[nH]c3C)cc1OC2 [Example 38, 3-(3,5-dimethyl-1H-pyrazol-4-yl)-N—((R)-1-hydroxy-3-(1H-indol-3-yl)propan-2-yl)-8,9-dimethoxy-6H-benzo[c]chromene-2-carboxamide] | < 0.1
22 | COc1cc2c(cc1OC)-c1cc(C(=O)N[C@@H](CO)Cc3c[nH]c4ccccc34)c(OC(C)C)cc1OC2 [Example 34, (R)—N-(1-hydroxy-3-(1H-indol-3-yl)propan-2-yl)-3-isopropoxy-8,9-dimethoxy-6H-benzo[c]chromene-2-carboxamide] | < 0.1
23 | COc1cc2c(cc1OC)-c1cc(C(=O)N[C@@H](CO)Cc3c[nH]c4ccccc34)c(OC3CCCC3)cc1CC2 [Example 9, (R)-2-(cyclopentyloxy)-N-(1-hydroxy-3-(1H-indol-3-yl)propan-2-yl)-6,7-dimethoxy-9,10-dihydrophenanthrene-3-carboxamide] | < 0.1
